Results taken from patent US9029574B2, “Bicyclic compound and use thereof for medical purposes” (Ono Pharmaceutical Co., Ltd., priority 2011, dated 2015).

What was measured:
Type in all cases: cell-based
mouse EP1 receptor = target: T1, mouse EP1 receptor (Mus musculus, UniProt P35375); assay: Measurement of EP1 agonist activity (intracellular calcium concentration) in EP1-CHO cells; settings: for EC50: EP1-CHO cells, intracellular calcium concentration, read-out: Agonist activity on various prostanoid receptors: EC50 value (nmol/L) EP1
T1 construct: expressed in transfected cells; host or cells: CHO cells (EP1-CHO)
T1 sequence (P35375 1-405): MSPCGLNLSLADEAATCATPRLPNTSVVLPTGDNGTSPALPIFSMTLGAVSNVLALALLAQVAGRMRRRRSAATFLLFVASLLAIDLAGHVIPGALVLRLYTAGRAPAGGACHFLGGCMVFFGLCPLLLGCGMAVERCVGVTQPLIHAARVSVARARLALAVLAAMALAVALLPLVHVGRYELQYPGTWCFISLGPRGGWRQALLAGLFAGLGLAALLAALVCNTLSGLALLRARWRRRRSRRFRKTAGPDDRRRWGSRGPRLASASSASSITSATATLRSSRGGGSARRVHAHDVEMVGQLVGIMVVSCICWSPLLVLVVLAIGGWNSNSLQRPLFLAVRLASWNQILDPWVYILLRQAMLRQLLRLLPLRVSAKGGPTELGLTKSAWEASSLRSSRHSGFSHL
Text: (§1) (1-1) Measurement of Agonist Activity on Various Mouse Prostanoid Receptors
(§2) With using CHO cells (FP-CHO, EP1-CHO and IP-CHO, respectively) in which various mouse prostanoid receptors were forcibly expressed, respectively, agonist activity of test compounds on various prostanoid receptors was studied employing an intracellular calcium concentration regarding FP and EP1, and an intracellular cyclic AMP (hereinafter, abbreviated as cAMP) production amount regarding IP, as an index.
(§3) The test compound was dissolved with dimethyl sulfoxide (DMSO) to prepare a 10 mmol/L solution. Regarding the prepared 10 mmol/L solution, upon use, the 10 mmol/L solution was thawed; step wisely-diluted using DMSO; and diluted with a buffer solution for measurement or a buffer solution for measurement 2, which was subjected to an experiment.
(§4) Cells forcibly expressing various mouse prostanoid receptors were standing-cultured at 37° C. in the presence of 5% CO2 with using an α-MEM medium (Sigma) (for culturing FP-CHO and EP1-CHO) containing inactivated (56° C., 30 minutes) 9.8 vol % dialysed-FBS (Invitrogen) and penicillin-streptomycin-glutamine (GIBCO-BRL), or nucleic acid-containing α-MEM (Sigma) (for culturing IP-CHO) containing inactivated (56° C., 30 minutes) 9.8 vol % dialysed-FBS (Invitrogen) and penicillin-streptomycin glutamine (Invitrogen). Subculturing was performed by the following method.
(§5) After collecting cells into a centrifuging tube, cells were centrifuged at 120 g for 3 minutes at room temperature and the supernatant was removed. Cells were suspended in a suitable amount of a medium, and seeded in a culturing flask.
(§6) (1-2) Measurement of FP and EP1 Agonist Activity (Measurement of Intracellular Calcium Concentration)
(§7) Regarding FP-CHO and EP1-CHO, by the same method as that of subculturing, cells were peeled and suspended. Before two days from measurement, cells were seeded at a density of 1.0×10^4 cells/well into a 96-well UV plate, and standing-cultured at 37° C. in the presence of 5% CO2. […] To each well, 100 μL of a medium containing 5 μmol/L fura 2-AM (DOJINDO), 2.5 mmol/L Probenecid (Sigma), 20 μmol/L indometacin (Sigma) and 10 mmol/L HEPES (Invitrogen) was added, and cells were incubated for about 60 minutes in a CO2 incubator. After completion of the incubation, the medium was removed, and cells were washed with a buffer solution for measurement (Hank's balanced salt solution (Nissui Pharmaceutical Co., Ltd., 9.8 g of the present product was dissolved in 1 L distilled water) containing 0.1 or 1 w/v % bovine serum albumin, 2 μmol/L indometacin, 2.5 mmol/L Probenecid and 10 mmol/L HEPES-NaOH (pH 7.4)) twice. To each well, 120 μL of a buffer solution for measurement was added; and cells were incubated in a CO2 incubator for 30 minutes; and then cells were subjected to an experiment.
(§8) The 96-well UV plate was set in a fluorescent spectral photometer (FDSS-3000, Hamamatsu Photonics K.K.), and an intracellular calcium concentration was measured. To perform a reaction, 30 μL of a buffered solution for measurement containing an agonist at a variety of concentrations was added. Measurement of an intracellular calcium concentration was performed by irradiating cells with excited light of 340 nm and 380 nm alternately, with measuring a fluorescent intensity at 500 nm, and obtaining a fluorescent intensity ratio of 2-wavelength excitation.
(§9) With using measured values obtained from the above method, an EC50 value as an index of agonist activity of the compound of the present invention on mouse FP, mouse EP1 and mouse IP receptors was calculated.

mouse IP receptor = target: T2, mouse IP receptor (Mus musculus, UniProt P43252); assay: Measurement of IP agonist activity (cAMP concentration) in IP-CHO cells; settings: for EC50: IP-CHO cells, intracellular cAMP production amount, read-out: Agonist activity on various prostanoid receptors: EC50 value (nmol/L) IP
T2 construct: expressed in transfected cells; host or cells: CHO cells (IP-CHO)
T2 sequence (P43252 whole entry): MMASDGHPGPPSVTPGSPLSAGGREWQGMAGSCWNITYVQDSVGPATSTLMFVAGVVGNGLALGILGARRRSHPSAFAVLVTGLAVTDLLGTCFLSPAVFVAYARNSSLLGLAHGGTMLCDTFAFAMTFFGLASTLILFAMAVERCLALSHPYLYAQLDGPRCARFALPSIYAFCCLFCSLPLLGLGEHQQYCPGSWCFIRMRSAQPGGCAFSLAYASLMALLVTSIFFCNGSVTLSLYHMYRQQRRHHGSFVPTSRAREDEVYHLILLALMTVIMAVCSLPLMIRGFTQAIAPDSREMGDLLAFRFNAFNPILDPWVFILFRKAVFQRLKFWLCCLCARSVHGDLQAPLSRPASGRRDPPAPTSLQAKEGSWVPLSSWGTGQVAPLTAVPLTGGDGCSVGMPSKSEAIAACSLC
Text: as §1, §2, §3, §4, §5
(1-3) Measurement of IP Agonist Activity (Measurement of cAMP Concentration)
Cells were suspended in a suitable amount of a buffer solution for measurement 1 (MEM medium (Invitrogen) containing 0.1 w/v % bovine serum albumin (Sigma) and 2 μmol/L diclofenac (Sigma)), and centrifuged at room temperature for 3 minutes at 500 g, and the supernatant was removed. Cells were suspended in a buffer solution for measurement 2 (MEM medium (Invitrogen) containing 0.1 w/v % bovine serum albumin (Sigma), 2 μmol/L diclofenac (Sigma) and 1 mmol/L 3-isobutyl-1-methylxanthine), and each 25 μL of the suspension was dispensed at a density of 5.0×10^4 cells/well into a 96-well ½ area plate. A buffer solution for measurement 2 (25 μL) containing an agonist at a variety of concentrations was added to perform a reaction at room temperature for 30 minutes. Measurement of a cAMP concentration was performed with using the cAMP HTRF HiRange kit (CIS bio International). According to the two step protocol of the kit manual, each 25 μL of cAMP-D2 and cryptase diluted with a lysis buffer were added, followed by incubation at room temperature for 1 hour. After incubation for 1 hour, time resolved fluorescence at 620 nm and 660 nm in case of beging excited at 340 nm was measured using Analyst GT (Molecular Device), and a ratio (TRF ratio) was obtained, by which a cAMP concentration was calculated from a calibration line.
as §9

mouse FP receptor = target: T3, mouse FP receptor (Mus musculus, UniProt P43117); assay: Measurement of FP agonist activity (intracellular calcium concentration) in FP-CHO cells; settings: for EC50: FP-CHO cells, intracellular calcium concentration, read-out: Agonist activity on various prostanoid receptors: EC50 value (nmol/L) FP
T3 construct: expressed in transfected cells; host or cells: CHO cells (FP-CHO)
T3 sequence (P43117 whole entry): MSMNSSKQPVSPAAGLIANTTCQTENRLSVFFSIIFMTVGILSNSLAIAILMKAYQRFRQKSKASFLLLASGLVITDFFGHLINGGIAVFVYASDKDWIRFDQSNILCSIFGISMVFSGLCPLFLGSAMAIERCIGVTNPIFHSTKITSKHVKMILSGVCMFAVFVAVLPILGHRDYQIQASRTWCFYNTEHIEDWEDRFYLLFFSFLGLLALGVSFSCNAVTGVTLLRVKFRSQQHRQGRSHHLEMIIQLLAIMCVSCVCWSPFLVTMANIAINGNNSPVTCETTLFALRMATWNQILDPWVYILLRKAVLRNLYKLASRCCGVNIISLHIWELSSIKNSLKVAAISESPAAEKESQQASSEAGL
Text: as §1, §2, §3, §4, §5, §6, §7, §8, §9

| SMILES | EC50 (mouse EP1 receptor) | EC50 (mouse IP receptor) | EC50 (mouse FP receptor) | agonist activity on an EP1 receptor (mouse EP1 receptor; in words, summary of Table 1) | agonist activity on an IP receptor (mouse IP receptor; in words, summary of Table 1) | agonist activity on an FP receptor (mouse FP receptor; in words, summary of Table 1) |
| --- | --- | --- | --- | --- | --- | --- |
| O=C(O)CCC[C@H]1CC[C@@H]2[C@@H](CCOCCc3ccccc3)[C@H](O)C[C@@H]2OC1 [Example 115, 4-{(3S,5aR,6R,7R,8aS)-7-hydroxy-6-[2-(2-phenylethoxy)ethyl]octahydro-2H-cyclopenta[b]oxepin-3-yl}butanoic acid] | > 10000 nmol/L | > 10000 nmol/L | 509 nmol/L | – | – | – |
| O=C(O)CCC[C@H]1CC[C@H]2[C@H](CC(F)(F)[C@@H]2/C=C/C(O)CCc2ccccc2)OC1 (stereo partly drawn) [Example 139 (2), 4-{(3S,5aR,6R,8aS)-7,7-difluoro-6-[(1E)-3-hydroxy-5-phenyl-1-penten-1-yl]octahydro-2H-cyclopenta[b]oxepin-3-yl}butanoic acid] | > 10000 nmol/L | > 10000 nmol/L | 39 nmol/L | – | – | – |
| O=C(O)CCC[C@H]1CC[C@@H]2[C@@H](CC[C@@H](O)COc3cccc(C(F)(F)F)c3)[C@H](O)C[C@@H]2OC1 [Example 108 (13), 4-[(3S,5aR,6R,7R,8aS)-7-hydroxy-6-{(3R)-3-hydroxy-4-[3-(trifluoromethyl)phenoxy]butyl}octahydro-2H-cyclopenta[b]oxepin-3-yl]butanoic acid] | > 10000 nmol/L | > 10000 nmol/L | 9.7 nmol/L | – | – | – |
| O=C(O)CCC[C@H]1CC[C@@H]2[C@@H](/C=C/[C@@H](O)COc3ccccc3)[C@H](O)C[C@@H]2O1 [Comparative Compound A, reference compound] | 3 nmol/L | 710 nmol/L | 1.1 nmol/L | has agonist activity | has agonist activity | has agonist activity |
| O=C(O)CCC[C@H]1CC[C@@H]2[C@@H](/C=C/C(O)CCC3CCCC3)[C@H](O)C[C@@H]2OC1 (stereo partly drawn) [Example 132 (7), 4-{(3S,5aR,6R,7R,8aS)-6-[(1E)-5-cyclopentyl-3-hydroxy-1-penten-1-yl]-7-hydroxyoctahydro-2H-cyclopenta[b]oxepin-3-yl}butanoic acid] | > 10000 nmol/L | > 10000 nmol/L | 21.1 nmol/L | – | – | – |
| CC(C)=CCCCC(F)(F)/C=C/[C@@H]1[C@H]2CC[C@H](CCCC(=O)O)CO[C@H]2C[C@H]1O [Example 141 (5), 4-{(3S,5aR,6R,7R,8aS)-6-[(1E)-3,3-difluoro-8-methyl-1,7-nonadien-1-yl]-7-hydroxyoctahydro-2H-cyclopenta[b]oxepin-3-yl}butanoic acid] | > 10000 nmol/L | > 10000 nmol/L | 39.1 nmol/L | – | – | – |
| O=C(O)CCC[C@H]1CC[C@@H]2[C@@H](C#CC(O)CCc3ccccc3)[C@H](O)C[C@@H]2OC1 (stereo partly drawn) [Example 119, 4-[(3S,5aR,6S,7R,8aS)-7-hydroxy-6-(3-hydroxy-5-phenyl-1-pentyn-1-yl)octahydro-2H-cyclopenta[b]oxepin-3-yl]butanoic acid] | > 10000 nmol/L | > 10000 nmol/L | 50.8 nmol/L | – | – | – |
| O=C(O)CCC[C@H]1CC[C@@H]2[C@@H](/C=C/C(F)(F)CCc3ccccc3)[C@H](O)C[C@@H]2OC1 [Example 141 (1), 4-{(3S,5aR,6R,7R,8aS)-6-[(1E)-3,3-difluoro-5-phenyl-1-penten-1-yl]-7-hydroxyoctahydro-2H-cyclopenta[b]oxepin-3-yl}butanoic acid] | > 10000 nmol/L | > 10000 nmol/L | 4.6 nmol/L | – | – | – |

Further lines, results first:

| EC50 (mouse EP1 receptor) | EC50 (mouse IP receptor) | EC50 (mouse FP receptor) | agonist activity on an EP1 receptor (mouse EP1 receptor; in words, summary of Table 1) | agonist activity on an IP receptor (mouse IP receptor; in words, summary of Table 1) | agonist activity on an FP receptor (mouse FP receptor; in words, summary of Table 1) | SMILES |
| --- | --- | --- | --- | --- | --- | --- |
| > 10000 nmol/L | > 10000 nmol/L | 114 nmol/L | – | – | – | O=C(O)CCC[C@H]1CC[C@@H]2[C@@H](/C=C/C(O)COCc3ccccc3)[C@H](O)C[C@@H]2OC1 (stereo partly drawn) [Example 132 (3), 4-{(3S,5aR,6R,7R,8aS)-6-[(1E)-4-(benzyloxy)-3-hydroxy-1-buten-1-yl]-7-hydroxyoctahydro-2H-cyclopenta[b]oxepin-3-yl}butanoic acid] |
| 9270 nmol/L | > 10000 nmol/L | 9.8 nmol/L | – | – | – | O=C(O)CCC[C@H]1CC[C@@H]2[C@@H](/C=C/C(F)COc3ccccc3)[C@H](O)C[C@@H]2OC1 (stereo partly drawn) [Example 122, 4-{(3S,5aR,6R,7R,8aS)-6-[(1E)-3-fluoro-4-phenoxy-1-buten-1-yl]-7-hydroxyoctahydro-2H-cyclopenta[b]oxepin-3-yl}butanoic acid] |
| > 10000 nmol/L | > 10000 nmol/L | 99.2 nmol/L | – | – | – | O=C(O)CCC[C@H]1CC[C@@H]2[C@@H](C(F)/C=C/COc3ccccc3)[C@H](O)C[C@@H]2OC1 (stereo partly drawn) [Example 123, 4-{(3S,5aR,6R,7R,8aS)-6-[(2E)-1-fluoro-4-phenoxy-2-buten-1-yl]-7-hydroxyoctahydro-2H-cyclopenta[b]oxepin-3-yl}butanoic acid] |
| > 10000 nmol/L | > 10000 nmol/L | 707 nmol/L | – | – | – | O=C(O)CCC[C@H]1CC[C@@H]2[C@@H](COC/C=C/c3ccccc3)[C@H](O)C[C@@H]2OC1 [Example 110, 4-[(3S,5aR,6S,7R,8aS)-7-hydroxy-6-({[(2E)-3-phenyl-2-propen-1-yl]oxy}methyl)octahydro-2H-cyclopenta[b]oxepin-3-yl]butanoic acid] |
